Results taken from the supplement of paper PMC10627819.

Key:
Test in all cases: fitness (endpoint OD595 vs no drug) (fraction); higher = more growth
S. aureus DSM 20231 = test system: S. aureus DSM 20231
Summary of the method: (§1)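 Fitness expresses the optical density reached at the stationary-phase transition as a fraction of the robust mean of no-drug control wells. It is capped at 1. Measurements were OD595 every 30 min for 14 h at 37 °C after inoculation of 384-well plates at OD595 0.01 (30 µl, or 55 µl for S. pneumoniae), minus the first reading.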

S. pneumoniae D39V = test system: S. pneumoniae D39V
Summary of the method: as §1

S. aureus Newman = test system: S. aureus Newman
Summary of the method: as §1
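Also: OD595 on entry to stationary phase over no-drug wells; at most 1.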

CCC[C@@H]1C[C@@H](C(=O)N[C@@H]([C@H]2O[C@H](SC)[C@H](O)[C@@H](O)[C@H]2O)[C@@H](C)O)N(C)C1 [Lincomycin] + CO[C@@]12[C@H](COC(N)=O)C3=C(C(=O)C(C)=C(N)C3=O)N1C[C@@H]1N[C@@H]12 [Mitomycin C]
Conditions	fitness
S. aureus DSM 20231, first compound 0.1 µg/mL, partner 0.0156 µg/mL	0.645
S. aureus DSM 20231, first compound 0.1 µg/mL, partner 0.0312 µg/mL	0.651
S. aureus DSM 20231, first compound 0.1 µg/mL, partner 0.0625 µg/mL	0.502
S. aureus DSM 20231, first compound 0.2 µg/mL, partner 0.0156 µg/mL	0.613
S. aureus DSM 20231, first compound 0.2 µg/mL, partner 0.0312 µg/mL	0.567
S. aureus DSM 20231, first compound 0.2 µg/mL, partner 0.0625 µg/mL	0.383
S. aureus DSM 20231, first compound 0.4 µg/mL, partner 0.0156 µg/mL	0.217
S. aureus DSM 20231, first compound 0.4 µg/mL, partner 0.0312 µg/mL	0.199
S. aureus DSM 20231, first compound 0.4 µg/mL, partner 0.0625 µg/mL	0.108
S. pneumoniae D39V, first compound 0.2 µg/mL, partner 0.001075 µg/mL	0.679
S. pneumoniae D39V, first compound 0.2 µg/mL, partner 0.00215 µg/mL	0.69
S. pneumoniae D39V, first compound 0.2 µg/mL, partner 0.0043 µg/mL	0.603
S. pneumoniae D39V, first compound 0.215 µg/mL, partner 0.002 µg/mL	0.709
S. pneumoniae D39V, first compound 0.215 µg/mL, partner 0.004 µg/mL	0.73
S. pneumoniae D39V, first compound 0.215 µg/mL, partner 0.008 µg/mL	0.657
S. pneumoniae D39V, first compound 0.4 µg/mL, partner 0.001075 µg/mL	0.605
S. pneumoniae D39V, first compound 0.4 µg/mL, partner 0.00215 µg/mL	0.609
S. pneumoniae D39V, first compound 0.4 µg/mL, partner 0.0043 µg/mL	0.497
S. pneumoniae D39V, first compound 0.43 µg/mL, partner 0.002 µg/mL	0.615
S. pneumoniae D39V, first compound 0.43 µg/mL, partner 0.004 µg/mL	0.614
S. pneumoniae D39V, first compound 0.43 µg/mL, partner 0.008 µg/mL	0.514
S. pneumoniae D39V, first compound 0.8 µg/mL, partner 0.001075 µg/mL	0.221
S. pneumoniae D39V, first compound 0.8 µg/mL, partner 0.00215 µg/mL	0.218
S. pneumoniae D39V, first compound 0.8 µg/mL, partner 0.0043 µg/mL	0.131
S. pneumoniae D39V, first compound 0.86 µg/mL, partner 0.002 µg/mL	0.246
S. pneumoniae D39V, first compound 0.86 µg/mL, partner 0.004 µg/mL	0.258
S. pneumoniae D39V, first compound 0.86 µg/mL, partner 0.008 µg/mL	0.266

COc1c(N2C[C@@H]3CCCN[C@@H]3C2)c(F)cc2c(=O)c(C(=O)O)cn(C3CC3)c12 [Moxifloxacin] + CC1(C)S[C@@H]2[C@H](NC(=O)Cc3ccccc3)C(=O)N2[C@H]1C(=O)O [Penicillin G]
fitness, S. aureus Newman
Conditions	first compound 0.0075 µg/mL	first compound 0.015 µg/mL	first compound 0.03 µg/mL
partner 0.0195 µg/mL	0.722	0.625	0.081
partner 0.039 µg/mL	0.706	–	0.059
partner 0.078 µg/mL	0.721	0.596	0.0633

C/C(=C\C(=O)OCCCCCCCCC(=O)O)C[C@@H]1OC[C@H](C[C@@H]2O[C@H]2[C@@H](C)[C@H](C)O)[C@@H](O)[C@H]1O [Pseudomonic acid] + CC1(C)S[C@@H]2[C@H](NC(=O)Cc3ccccc3)C(=O)N2[C@H]1C(=O)O [Penicillin G]
fitness, S. aureus Newman, one replicate
Conditions	first compound 0.0313 µg/mL	first compound 0.0625 µg/mL	first compound 0.125 µg/mL
partner 0.0195 µg/mL	0.0428	0.0466	0.0353
partner 0.039 µg/mL	0.0545	0.0468	0.0403
partner 0.078 µg/mL	0.069	0.0571	0.0351

C/C(=C\C(=O)OCCCCCCCCC(=O)O)C[C@@H]1OC[C@H](C[C@@H]2O[C@H]2[C@@H](C)[C@H](C)O)[C@@H](O)[C@H]1O [Pseudomonic acid] + CCN(CC)CCOC(=O)c1ccc(N)cc1 [Procaine]
fitness, S. aureus Newman, one replicate
Conditions	first compound 0.0313 µg/mL	first compound 0.0625 µg/mL	first compound 0.125 µg/mL
partner 85.5 µg/mL	0.0858	0.046	0.0525
partner 171 µg/mL	0.0636	0.045	0.0572
partner 342 µg/mL	0.0723	0.0522	0.0551

fitness, S. pneumoniae D39V
Conditions	first compound 0.03 µg/mL	first compound 0.06 µg/mL	first compound 0.12 µg/mL
partner 85.5 µg/mL	0.867	0.69	0.587
partner 171 µg/mL	0.92	0.762	0.581
partner 342 µg/mL	0.878	0.716	0.583

C/C(=C\C(=O)OCCCCCCCCC(=O)O)C[C@@H]1OC[C@H](C[C@@H]2O[C@H]2[C@@H](C)[C@H](C)O)[C@@H](O)[C@H]1O [Pseudomonic acid] + COc1c(N2C[C@@H]3CCCN[C@@H]3C2)c(F)cc2c(=O)c(C(=O)O)cn(C3CC3)c12 [Moxifloxacin]
fitness, S. aureus Newman, one replicate
Conditions	first compound 0.0313 µg/mL	first compound 0.0625 µg/mL	first compound 0.125 µg/mL
partner 0.0075 µg/mL	0.0642	0.025	0.0349
partner 0.015 µg/mL	0.0514	0.0242	0.0408
partner 0.03 µg/mL	0.0387	0.0144	0.0169

fitness, S. pneumoniae D39V
Conditions	partner 0.0037 µg/mL	partner 0.005 µg/mL	partner 0.0075 µg/mL	partner 0.01 µg/mL	partner 0.015 µg/mL	partner 0.02 µg/mL
first compound 0.03 µg/mL	0.635	0.929	0.839	0.975	0.806	0.982
first compound 0.06 µg/mL	0.49	0.834	0.715	0.876	0.692	0.869
first compound 0.12 µg/mL	0.357	0.609	0.534	0.662	0.539	0.671

C/C(=C\C(=O)OCCCCCCCCC(=O)O)C[C@@H]1OC[C@H](C[C@@H]2O[C@H]2[C@@H](C)[C@H](C)O)[C@@H](O)[C@H]1O [Pseudomonic acid] + C[n+]1ccc(-c2cc[n+](C)cc2)cc1 [Paraquat]
fitness, S. aureus Newman, one replicate
Conditions	first compound 0.0313 µg/mL	first compound 0.0625 µg/mL	first compound 0.125 µg/mL
partner 1.25 µg/mL	0.0626	0.028	0.0553
partner 2.5 µg/mL	0.0649	0.0373	0.0338
partner 5 µg/mL	0.082	0.0355	0.0668

fitness, S. pneumoniae D39V
Conditions	partner 1.5 µg/mL	partner 3 µg/mL	partner 6 µg/mL
first compound 0.03 µg/mL	0.988	0.919	0.931
first compound 0.06 µg/mL	0.837	0.78	0.779

C/C(=C\C(=O)OCCCCCCCCC(=O)O)C[C@@H]1OC[C@H](C[C@@H]2O[C@H]2[C@@H](C)[C@H](C)O)[C@@H](O)[C@H]1O [Pseudomonic acid] + Cc1onc(-c2ccccc2)c1C(=O)N[C@@H]1C(=O)N2[C@@H]1SC(C)(C)[C@@H]2C(=O)O [Oxacillin]
fitness, S. aureus Newman, one replicate
Conditions	first compound 0.0313 µg/mL	first compound 0.0625 µg/mL	first compound 0.125 µg/mL
partner 0.0156 µg/mL	0.058	0.0445	0.0455
partner 0.0312 µg/mL	0.0524	0.0435	0.0505
partner 0.0625 µg/mL	0.0522	0.0224	0.0295

fitness, S. pneumoniae D39V
Conditions	first compound 0.03 µg/mL	first compound 0.06 µg/mL	first compound 0.12 µg/mL
partner 0.01 µg/mL	0.948	0.835	0.589
partner 0.02 µg/mL	0.95	0.819	0.562
partner 0.04 µg/mL	–	0.717	0.424

COc1cc(Cc2cnc(N)nc2N)cc(OC)c1OC [Trimethoprim] + Cn1nnc(-c2ccc(-c3ccc(N4C[C@H](CO)OC4=O)cc3F)cn2)n1 [Tedizolid]
S. aureus DSM 20231, first compound 0.125 µg/mL, one replicate
Conditions	fitness
partner 0.0625 µg/mL	0.846
partner 0.125 µg/mL	0.575
partner 0.25 µg/mL	0.289

fitness, S. aureus DSM 20231
Conditions	first compound 0.25 µg/mL	first compound 0.5 µg/mL	first compound 1 µg/mL
partner 0.0625 µg/mL	0.623	–	0.0355
partner 0.125 µg/mL	0.689	0.519	0.0418
partner 0.25 µg/mL	0.502	0.39	0.192
